Data: patent publication US7427627B2, “N-(4-(4-methylthiazol-5-yl) pyrimidin-2-yl)-N-phenylamines as antiproliferative compounds” (Cyclacel Limited, priority 2001, dated 2008)
Where two headings read alike, the source gives them in different places.

Legend:
CDK2/cyclin E = target: T1, CDK2/cyclin E (Homo sapiens, UniProt P24941); test: Kinase assay CDK2/cyclin E; assay type: biochemical; conditions: Table 1; read-out: Kinase inhibition, IC50 (μM) CDK2/E
T1 construct: His6

A549 = test: 72-h MTT cytotoxicity assay, A549; assay type: cell-based, human; conditions: Homo sapiens
Protocol: In short: cells were seeded into 96-well plates according to doubling time and incubated overnight at 37° C. Test compounds were made up in DMSO and a 1/3 dilution series prepared in 100 μL cell media, added to cells (in triplicates) and incubated for 72 ho at 37° C. MTT was made up as a stock of 5 mg/mL in cell media and filter-sterilised. Media was removed from cells followed by a wash with 200 μL PBS. MTT solution was then added at 20 μL per well and incubated in the dark at 37° C. for 4 h. MTT solution was removed and cells again washed with 200 μL PBS. MTT dye was solubilised with 200 μL per well of DMSO with agitation.

HT29 = test: 72-h MTT cytotoxicity assay, HT29; assay type: cell-based; conditions: Homo sapiens
Protocol: (§1) The compounds from the examples above were subjected to a standard cellular proliferation assay using human tumour cell lines obtained from the ATCC (American Type Culture Collection, 10801 University Boulevard, Manessas, Va. 20110-2209, USA). Standard 72-h MTT (thiazolyl blue; 3-[4,5-dimethylthiazol-2-yl]-2,5-diphenyltetrazolium bromide) assays were performed (Haselsberger, K.; Peterson, D. C.; Thomas, D. G.; Darling, J. L. Anti Cancer Drugs 1996, 7, 331-8; Loveland, B. E.; Johns, T. G.; Mackay, I. R.; Vaillant, F.; Wang, Z. X.; Hertzog, P. J. Biochemistry International 1992, 27, 501-10). In short: cells were seeded into 96-well plates according to doubling time and incubated overnight at 37° C. Test compounds were made up in DMSO and a 1/3 dilution series prepared in 100 μL cell media, added to cells (in triplicates) and incubated for 72 ho at 37° C. MTT was made up as a stock of 5 mg/mL in cell media and filter-sterilised. Media was removed from cells followed by a wash with 200 μL PBS. MTT solution was then added at 20 μL per well and incubated in the dark at 37° C. for 4 h. MTT solution was removed and cells again washed with 200 μL PBS. MTT dye was solubilised with 200 μL per well of DMSO with agitation.

Saos-2 = test: 72-h MTT cytotoxicity assay, Saos-2; assay type: cell-based; conditions: Homo sapiens
Protocol: as §1

U2OS = test: 72-h MTT assay, U2OS; assay type: cell-based; conditions: Homo sapiens, read-out: 72-h MTT IC50 U2OS, Table 3, Bone osteosarcoma
Protocol: as §1

MCF-7 = test: 72-h MTT assay, MCF-7; assay type: cell-based; conditions: Homo sapiens, MCF7, 72 h, read-out: 72-h MTT IC50 MCF-7; Table 3; Breast
Protocol: as §1

Hela = test: 72-h MTT assay, Hela; assay type: cell-based; conditions: Homo sapiens, read-out: 72-h MTT IC50 Hela, Table 3, Cervix
Protocol: as §1

Lovo = test: 72-h MTT assay, Lovo; assay type: cell-based; conditions: Homo sapiens, read-out: 72-h MTT IC50 Lovo, Table 3, Colon
Protocol: as §1

H1299 = test: 72-h MTT assay, H1299; assay type: cell-based; conditions: Homo sapiens, NCI-H1299, 72 h, read-out: 72-h MTT IC50 H1299; Table 3; Lung
Protocol: as §1

HCT-116 = test: 72-h MTT assay, HCT-116; assay type: cell-based; conditions: Homo sapiens, HCT-116, 72 h, read-out: 72-h MTT IC50 HCT-116; Table 3; Colon
Protocol: as §1

AGS = test: 72-h MTT assay, AGS; assay type: cell-based; conditions: Homo sapiens, read-out: 72-h MTT IC50 AGS, Table 3, Gastric adenocarcinoma
Protocol: as §1

SKUT-1B = test: 72-h MTT assay, SKUT-1B; assay type: cell-based; conditions: Homo sapiens, Skut1B, read-out: 72-h MTT IC50 SKUT-1B, Table 3, Leiomyosarcoma
Protocol: as §1

SKUT-1 = test: 72-h MTT assay, SKUT-1; assay type: cell-based; conditions: Homo sapiens, SK-UT-1, 72 h, read-out: 72-h MTT IC50 SKUT-1; Table 3; Leiomyosarcoma
Protocol: as §1

K562 = test: 72-h MTT assay, K562; assay type: cell-based; conditions: Homo sapiens, K562, 72 h, read-out: 72-h MTT IC50 K562; Table 3; Chronic myelogenous leukaemia
Protocol: as §1

CCRF-CEM = test: 72-h MTT assay, CCRF-CEM; assay type: cell-based; conditions: Homo sapiens, read-out: 72-h MTT IC50 CCRF-CEM, Table 3, Leukaemia
Protocol: as §1

HL60 = test: 72-h MTT assay, HL60; assay type: cell-based; conditions: Homo sapiens, HL-60, 72 h, read-out: 72-h MTT IC50 HL60; Table 3; Promyelocytic leukaemia
Protocol: as §1

nci-H460 = test: 72-h MTT assay, nci-H460; assay type: cell-based; conditions: Homo sapiens, NCI-H460, 72 h, read-out: 72-h MTT IC50 nci-H460; Table 3; Lung
Protocol: as §1

SK-N-MC = test: 72-h MTT assay, SK-N-MC; assay type: cell-based; conditions: Homo sapiens, read-out: 72-h MTT IC50 SK-N-MC, Table 3, Neuroblastoma
Protocol: as §1

SJSA-1 = test: 72-h MTT assay, SJSA-1; assay type: cell-based; conditions: Homo sapiens, SJSA-1, 72 h, read-out: 72-h MTT IC50 SJSA-1; Table 3; Osteogenic sarcoma
Protocol: as §1

DU-145 = test: 72-h MTT assay, DU-145; assay type: cell-based; conditions: Homo sapiens, DU-145, 72 h, read-out: 72-h MTT IC50 DU-145; Table 3; Prostate
Protocol: as §1

Hacat = test: 72-h MTT assay, Hacat; assay type: cell-based; conditions: Homo sapiens, read-out: 72-h MTT IC50 Hacat, Table 3, Skin keratinocytes
Protocol: as §1

Messa = test: 72-h MTT assay, Messa; assay type: cell-based; conditions: Homo sapiens, MES-SA, read-out: 72-h MTT IC50 Messa, Table 3, Uterine
Protocol: as §1

Messa-Dx5 = test: 72-h MTT assay, Messa-Dx5; assay type: cell-based; conditions: Homo sapiens, MES-SA/Dx5, 72 h, read-out: 72-h MTT IC50 Messa-Dx5; Table 3; Uterine
Protocol: as §1

Hs27 = test: 72-h MTT assay, Hs27; assay type: cell-based; conditions: Homo sapiens, HS27, 72 h, read-out: 72-h MTT IC50 Hs27; Table 3; Foreskin fibroblast (non-transformed)
Protocol: as §1

IMR-90 = test: 72-h MTT assay, IMR-90; assay type: cell-based; conditions: Homo sapiens, IMR-90, 72 h, read-out: 72-h MTT IC50 IMR-90; Table 3; Foetal lung fibroblast (non-transformed)
Protocol: as §1

WI38 = test: 72-h MTT assay, WI38; assay type: cell-based; conditions: Homo sapiens, WI-38, 72 h, read-out: 72-h MTT IC50 WI38; Table 3; Foetal lung (non-transformed)
Protocol: as §1

tumour cells = test: 72-h MTT assay, mean over tumour cell lines; assay type: cell-based; conditions: Homo sapiens, Table 3
Protocol: as §1

CDK4/cyclin D1 = CDK4/cyclin D1 (Homo sapiens, UniProt P11802); test: Kinase assay CDK4/cyclin D1;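 note: Enzyme: His6-tagged recombinant human CDK4 produced in baculovirus-infected Sf9 insect cells and purified by metal-chelate chromatography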
Chain of CDK4/cyclin D1 (P11802 whole entry): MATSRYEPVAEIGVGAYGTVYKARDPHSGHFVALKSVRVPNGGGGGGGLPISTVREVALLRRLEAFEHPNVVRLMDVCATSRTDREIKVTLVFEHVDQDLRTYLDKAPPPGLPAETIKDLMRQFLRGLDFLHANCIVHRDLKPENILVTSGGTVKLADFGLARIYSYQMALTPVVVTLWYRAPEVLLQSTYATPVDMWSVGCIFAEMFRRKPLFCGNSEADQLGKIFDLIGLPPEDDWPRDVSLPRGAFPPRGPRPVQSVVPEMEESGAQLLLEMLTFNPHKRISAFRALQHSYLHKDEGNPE
Chain of CDK4/cyclin D1 (P24385 whole entry partner): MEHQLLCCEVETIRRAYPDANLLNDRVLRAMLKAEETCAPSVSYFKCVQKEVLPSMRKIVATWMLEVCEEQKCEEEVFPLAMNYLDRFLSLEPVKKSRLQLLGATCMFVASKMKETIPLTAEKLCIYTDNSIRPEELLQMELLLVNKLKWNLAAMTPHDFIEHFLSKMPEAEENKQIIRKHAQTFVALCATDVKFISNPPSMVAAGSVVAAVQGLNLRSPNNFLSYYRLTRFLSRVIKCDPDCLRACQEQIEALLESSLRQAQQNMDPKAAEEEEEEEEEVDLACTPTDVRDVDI

CDK1-cyclin B1 complex = target: T2, CDK1-cyclin B1 complex (Homo sapiens, UniProt P06493); test: Kinase specificity assay CDK1/B1; assay type: biochemical; conditions: Table 2
T2 construct: His6
T2 sequence (P06493 whole entry): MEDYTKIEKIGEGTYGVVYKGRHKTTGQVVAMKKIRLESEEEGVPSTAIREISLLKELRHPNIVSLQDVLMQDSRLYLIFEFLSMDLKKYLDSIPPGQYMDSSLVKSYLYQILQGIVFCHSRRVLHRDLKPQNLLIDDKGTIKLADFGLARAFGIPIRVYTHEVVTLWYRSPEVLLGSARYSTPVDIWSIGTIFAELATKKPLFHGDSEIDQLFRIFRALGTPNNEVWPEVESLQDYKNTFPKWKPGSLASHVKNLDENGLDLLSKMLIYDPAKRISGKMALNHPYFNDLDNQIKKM
T2 sequence (P14635 whole entry partner): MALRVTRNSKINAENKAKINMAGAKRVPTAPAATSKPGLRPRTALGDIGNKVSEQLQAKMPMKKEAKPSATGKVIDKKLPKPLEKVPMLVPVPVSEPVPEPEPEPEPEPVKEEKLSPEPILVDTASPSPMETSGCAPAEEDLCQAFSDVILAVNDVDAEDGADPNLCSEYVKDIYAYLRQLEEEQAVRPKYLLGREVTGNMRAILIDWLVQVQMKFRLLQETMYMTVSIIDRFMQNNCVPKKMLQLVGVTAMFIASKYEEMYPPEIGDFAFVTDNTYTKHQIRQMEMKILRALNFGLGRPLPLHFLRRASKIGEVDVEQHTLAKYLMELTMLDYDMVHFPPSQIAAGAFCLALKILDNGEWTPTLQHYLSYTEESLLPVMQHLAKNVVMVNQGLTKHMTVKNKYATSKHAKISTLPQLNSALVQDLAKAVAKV

[1] = target: CDK7-cyclin H-MAT 1 complex (Homo sapiens, UniProt P50613); test: Kinase specificity assay CDK7/H; assay type: biochemical; conditions: Table 2
Chain of CDK7-cyclin H-MAT 1 complex (P50613 whole entry): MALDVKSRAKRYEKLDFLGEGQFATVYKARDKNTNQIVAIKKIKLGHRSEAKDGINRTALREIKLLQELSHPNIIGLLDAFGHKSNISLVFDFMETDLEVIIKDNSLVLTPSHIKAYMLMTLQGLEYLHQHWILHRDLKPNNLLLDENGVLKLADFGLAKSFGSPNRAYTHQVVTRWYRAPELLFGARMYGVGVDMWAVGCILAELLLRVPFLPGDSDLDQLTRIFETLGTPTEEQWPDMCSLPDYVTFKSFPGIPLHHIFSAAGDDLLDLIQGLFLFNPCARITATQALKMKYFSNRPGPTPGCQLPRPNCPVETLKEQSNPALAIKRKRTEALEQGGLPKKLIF
Chain of CDK7-cyclin H-MAT 1 complex (P51946 whole entry partner): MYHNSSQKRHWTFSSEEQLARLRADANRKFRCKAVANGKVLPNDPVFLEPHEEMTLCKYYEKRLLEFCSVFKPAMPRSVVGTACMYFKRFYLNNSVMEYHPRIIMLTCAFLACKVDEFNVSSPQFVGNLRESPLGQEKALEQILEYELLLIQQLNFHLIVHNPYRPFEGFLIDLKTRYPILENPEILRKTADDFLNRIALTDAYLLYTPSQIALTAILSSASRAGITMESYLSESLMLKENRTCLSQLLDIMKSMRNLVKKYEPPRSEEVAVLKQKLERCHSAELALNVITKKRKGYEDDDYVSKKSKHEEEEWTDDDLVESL
Chain of CDK7-cyclin H-MAT 1 complex (P51948 whole entry partner): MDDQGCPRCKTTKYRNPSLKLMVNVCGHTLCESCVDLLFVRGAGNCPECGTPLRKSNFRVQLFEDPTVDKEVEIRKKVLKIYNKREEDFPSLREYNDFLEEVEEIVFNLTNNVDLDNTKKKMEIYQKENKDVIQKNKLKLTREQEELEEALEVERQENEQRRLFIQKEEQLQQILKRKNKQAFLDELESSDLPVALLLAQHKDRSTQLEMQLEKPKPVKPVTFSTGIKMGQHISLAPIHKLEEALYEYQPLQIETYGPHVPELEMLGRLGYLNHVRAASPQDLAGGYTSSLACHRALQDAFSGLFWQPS

[2] = target: extracellular-signal-regulated kinase 2 (Homo sapiens, UniProt P28482); test: Kinase specificity assay ERK-2; assay type: biochemical; conditions: Table 2
protein kinase C α = target: T3, protein kinase C α (Homo sapiens, UniProt P17252); test: Kinase specificity assay PKCα; assay type: biochemical; conditions: Table 2
T3 construct: His6
Protocol: PKCα kinase activity may be measured by the incorporation of radio-labeled phosphate in Histone 3, as described. The reaction mixture (total volume 65 μl) consist of 50 mM Tris-HCl, 1 mM Calcium acetate, 3 mM DTT, 0.03 mg/ml Phosphatidylserine, 2.4 μg/ml PMA, 0.04% NP40, 12 mM Mg/Cl, purified PKCα-100 ng, Histone 3, 0.2 mg/ml, 100 μM ATP, 0.2 μCi [γ-^32P]-ATP. The reaction is carried over 15 min at 37° C. in microplate shaker and is stopped by adding 10 μl 75 mM orthophosphoric acid and placing the plate on ice. 50 μl of the reaction mixture is transferred onto P81 filterplate and after washing off the free radioactive phosphate (3 times with 200 μl 75 mM orthophosphoric acid per well) 50 μl of scintillation liquid (Microscint 40) were added to each well and the radioactivity is measured on Scintillation counter (Topcount, HP).

Ableson tyrosine kinase = Ableson tyrosine kinase (Homo sapiens, UniProt P00519); test: Kinase specificity assay Abl; assay type: biochemical; conditions: Table 2
protein kinase B = protein kinase B (Homo sapiens, UniProt P31749); test: Kinase specificity assay Akt/PKB; assay type: biochemical; conditions: Table 2
[3] = target: p70 ribosomal protein S6 kinase (Homo sapiens, UniProt P23443); test: Kinase specificity assay p70-S6K; assay type: biochemical; conditions: Table 2
Chain of p70 ribosomal protein S6 kinase (P23443 24-525): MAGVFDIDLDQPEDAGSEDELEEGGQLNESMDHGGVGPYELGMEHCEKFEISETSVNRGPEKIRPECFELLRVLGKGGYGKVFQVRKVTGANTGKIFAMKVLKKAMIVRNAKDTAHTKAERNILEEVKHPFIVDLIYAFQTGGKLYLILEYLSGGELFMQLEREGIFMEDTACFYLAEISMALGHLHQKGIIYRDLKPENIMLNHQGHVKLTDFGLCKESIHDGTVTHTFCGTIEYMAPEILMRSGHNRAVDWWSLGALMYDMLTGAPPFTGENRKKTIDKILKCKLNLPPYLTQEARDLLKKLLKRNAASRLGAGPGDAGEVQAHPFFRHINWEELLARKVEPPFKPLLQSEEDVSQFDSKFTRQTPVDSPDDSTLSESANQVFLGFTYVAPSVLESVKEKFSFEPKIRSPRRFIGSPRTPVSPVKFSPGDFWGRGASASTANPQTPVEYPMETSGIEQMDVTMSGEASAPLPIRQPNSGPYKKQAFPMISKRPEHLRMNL

[4] = target: stress-activated protein kinase 2a (Homo sapiens, UniProt Q16539); test: Kinase specificity assay SAPK2a; assay type: biochemical; conditions: Table 2
Chain of stress-activated protein kinase 2a (Q16539 whole entry): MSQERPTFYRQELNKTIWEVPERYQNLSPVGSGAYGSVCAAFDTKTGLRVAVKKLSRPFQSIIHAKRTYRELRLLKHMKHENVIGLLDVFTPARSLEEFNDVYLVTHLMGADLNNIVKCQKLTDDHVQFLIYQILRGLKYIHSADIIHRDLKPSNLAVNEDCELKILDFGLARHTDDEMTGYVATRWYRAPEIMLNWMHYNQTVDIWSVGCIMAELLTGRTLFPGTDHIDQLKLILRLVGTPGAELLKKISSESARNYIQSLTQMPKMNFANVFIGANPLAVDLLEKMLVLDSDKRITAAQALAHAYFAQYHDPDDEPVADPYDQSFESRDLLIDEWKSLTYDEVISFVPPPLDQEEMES

polo-like kinase 1 = polo-like kinase 1 (Homo sapiens, UniProt P53350); test: Kinase specificity assay Plk1; assay type: biochemical; conditions: Table 2
Chain of polo-like kinase 1 (P53350 whole entry): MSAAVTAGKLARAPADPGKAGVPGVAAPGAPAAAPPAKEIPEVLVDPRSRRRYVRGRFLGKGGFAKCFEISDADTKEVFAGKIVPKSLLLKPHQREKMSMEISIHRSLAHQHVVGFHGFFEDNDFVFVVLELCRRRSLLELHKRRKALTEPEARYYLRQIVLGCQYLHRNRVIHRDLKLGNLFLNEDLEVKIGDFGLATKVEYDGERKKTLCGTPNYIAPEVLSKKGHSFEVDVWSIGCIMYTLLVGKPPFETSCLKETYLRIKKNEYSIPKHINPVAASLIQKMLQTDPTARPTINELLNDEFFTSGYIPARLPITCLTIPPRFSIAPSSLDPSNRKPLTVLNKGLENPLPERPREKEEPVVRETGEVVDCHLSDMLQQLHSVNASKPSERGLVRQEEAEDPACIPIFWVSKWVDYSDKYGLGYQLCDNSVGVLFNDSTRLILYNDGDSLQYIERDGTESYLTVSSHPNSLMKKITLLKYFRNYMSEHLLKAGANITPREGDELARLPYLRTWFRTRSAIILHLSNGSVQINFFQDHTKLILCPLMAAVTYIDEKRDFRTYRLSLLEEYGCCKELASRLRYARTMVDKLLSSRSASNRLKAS

[5] = target: glycogen synthase kinase 3β (Homo sapiens, UniProt P49841); test: Kinase specificity assay GSK3β; assay type: biochemical; conditions: Table 2
Chain of glycogen synthase kinase 3β (P49841 whole entry): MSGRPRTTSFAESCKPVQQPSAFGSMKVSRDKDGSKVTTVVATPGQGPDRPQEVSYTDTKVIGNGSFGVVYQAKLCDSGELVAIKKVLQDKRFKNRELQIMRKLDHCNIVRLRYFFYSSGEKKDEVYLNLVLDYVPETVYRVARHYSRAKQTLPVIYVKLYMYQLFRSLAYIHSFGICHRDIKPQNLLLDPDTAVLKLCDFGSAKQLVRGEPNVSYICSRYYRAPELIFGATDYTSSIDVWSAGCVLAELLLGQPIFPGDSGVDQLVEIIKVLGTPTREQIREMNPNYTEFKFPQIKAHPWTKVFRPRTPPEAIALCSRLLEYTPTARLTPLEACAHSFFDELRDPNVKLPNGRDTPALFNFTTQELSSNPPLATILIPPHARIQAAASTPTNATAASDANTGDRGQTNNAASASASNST

[6] = target: calmodulin-dependent kinase II; conditions: read-out: Kinase specificity IC50 Cam-KII; Table 2
[7] = A549, 72 h, read-out: 72-h MTT IC50 A549, Table 3, Lung
[8] = A549, read-out: 72-h MTT in vitro IC50 (μM) A549, Table 1, 72 h
[9] = HT-29, 72 h, read-out: 72-h MTT IC50 HT29, Table 3, Colon
[10] = HT-29, read-out: 72-h MTT in vitro IC50 (μM) HT29, Table 1, 72 h
[11] = SAOS-2, 72 h, read-out: 72-h MTT IC50 Saos-2, Table 3, Bone osteosarcoma
[12] = SAOS-2, read-out: 72-h MTT in vitro IC50 (μM) Saos-2, Table 1, 72 h

| IC50 (CDK2/cyclin E) | IC50 (MCF-7) | IC50 (Hela) | IC50 (Lovo) | IC50 (H1299) | IC50 (HCT-116) | IC50 (AGS) | IC50 (SKUT-1B) | IC50 (SKUT-1) | IC50 (K562) | IC50 (CCRF-CEM) | IC50 (HL60) | IC50 (nci-H460) | IC50 (SK-N-MC) | Compound | IC50 (A549; [7]) | IC50 (A549; [8]) | IC50 (HT29; [9]) | IC50 (HT29; [10]) | IC50 (Saos-2; [11]) | IC50 (Saos-2; [12]) | other results |
| --- | --- | --- | --- | --- | --- | --- | --- | --- | --- | --- | --- | --- | --- | --- | --- | --- | --- | --- | --- | --- | --- |
| 0.05 µM | 190 nM | 140 nM | 130 nM | 270 nM | 280 nM | 300 nM | 40 nM | 300 nM | 150 nM | 260 nM | 70 nM | 180 nM | 280 nM | Cc1nc(N)sc1-c1ccnc(Nc2cccc(I)c2)n1 [Compound 10, [4-(2-Amino-4-methyl-thiazol-5-yl)-pyrimidin-2-yl]-(3-iodo-phenyl)-amine] | 0.6 µM | 0.29 µM | 0.1 µM | 0.51 µM | 0.43 µM | 0.58 µM | IC50 (U2OS): 500 nM; IC50 (SJSA-1): 850 nM; IC50 (DU-145): 750 nM; IC50 (Hacat): 170 nM; IC50 (Messa): 110 nM; IC50 (Messa-Dx5): 130 nM; IC50 (Hs27): > 5000 nM; IC50 (IMR-90): > 5000 nM; IC50 (WI38): > 5000 nM; IC50 (tumour cells): 280 nM; IC50 (CDK4/cyclin D1): 240 nM |
| 0.43 µM | 4740 nM | 550 nM | 230 nM | 630 nM | 690 nM | 1050 nM | 390 nM | 810 nM | 1350 nM | 850 nM | 2870 nM | 600 nM | 580 nM | Cc1nc(N)sc1-c1ccnc(Nc2ccc(CCO)cc2)n1 [Compound 15, 2-{4-[4-(2-Amino-4-methyl-thiazol-5-yl)-pyrimidin-2-ylamino]-phenyl}-ethanol] | 0.95 µM | 3.04 µM | 0.41 µM | 3.8 µM | 0.93 µM | 2.84 µM | IC50 (SJSA-1): 1500 nM; IC50 (DU-145): 980 nM; IC50 (Hacat): 730 nM; IC50 (Messa): 550 nM; IC50 (Messa-Dx5): 140 nM; IC50 (Hs27): > 5000 nM; IC50 (IMR-90): > 5000 nM; IC50 (WI38): > 5000 nM; IC50 (tumour cells): 1030 nM; IC50 (CDK4/cyclin D1): 1360 nM |
|  |  |  |  |  |  |  |  |  |  |  |  |  |  | Cc1nc(C)c(-c2ccnc(Nc3ccc(N(C)C)c([N+](=O)[O-])c3)n2)s1 [Compound 25, N^4-[4-(2,4-Dimethyl-thiazol-5-yl)-pyrimidin-2-yl-]-N^1,N^1-dimethyl-2-nitro-benzene-1,4-diamine] |  |  |  | 0.3 µM |  | 0.35 µM | IC50 (A549; A549, 72 h, read-out: 72-h MTT in vitro IC50 (μM) A549): 0.43 µM; IC50 (CDK1-cyclin B1 complex): 120 nM; IC50 [1]: 1300 nM; IC50 [2]: > 100000 nM; IC50 (protein kinase C α): > 100000 nM; IC50 (Ableson tyrosine kinase): 9900 nM; IC50 (protein kinase B): 61000 nM; IC50 [3]: 25000 nM; IC50 [4]: > 100000 nM; IC50 (polo-like kinase 1): > 100000 nM; IC50 [5]: 900 nM; IC50 [6]: > 100000 nM |
